The values that follow are results of earlier work, collected in patent publication US20250205268A1, “TREATMENT OF VIRUSES WITH ANTIVIRAL NUCLEOSIDES” (priority 2021, published 2025).

Structures are written as SMILES.

In this data set the test system is pestivirus and hepacivirus. The note with it: […] CHEMOTHER, 2003, 47 (1): 244-54; cited from earlier work.

As for `O=c1nc(NO)ccn1[C@@H]1O[C@H](CO)[C@@H](O)[C@H]1O` [β-D-N(4)-hydroxycytidine, 1-((2R,3R,4S,5R)-3,4-dihydroxy-5-(hydroxymethyl)tetrahydrofuran-2-yl)-4-(hydroxyamino)pyrimidin-2 (1H)-one], the antiviral activities entry is “antipestivirus and antihepacivirus activities”.
